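Five concentrations, 48 hours, 96-well plates. GI50: concentration for 50% inhibition of growth. TGI denotes the concentration required for complete inhibition of growth.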
What was measured:
Experiment in all cases: NCI anticancer screen, dose series, 48 h; in the data active means GI50 below about 0.43 µM; inactive means the rest
786-0 renal = system: 786-0 renal
A498 renal = system: A498 renal
A549 NSCLC = system: A549 NSCLC
ACHN renal = system: ACHN renal
BT-549 breast = system: BT-549 breast
CAKI-1 renal = system: CAKI-1 renal
CCRF-CEM leukemia = system: CCRF-CEM leukemia
COLO 205 colon = system: COLO 205 colon
DU-145 prostate = system: DU-145 prostate
HCC-2998 colon = system: HCC-2998 colon
HCT-116 colon = system: HCT-116 colon
HCT-15 colon = system: HCT-15 colon
HL-60(TB) leukemia = system: HL-60(TB) leukemia
HOP-62 NSCLC = system: HOP-62 NSCLC
HOP-92 NSCLC = system: HOP-92 NSCLC
HS 578T breast = system: HS 578T breast
HT29 colon = system: HT29 colon
IGROV1 ovarian = system: IGROV1 ovarian
K-562 leukemia = system: K-562 leukemia
KM12 colon = system: KM12 colon
LOX IMVI melanoma = system: LOX IMVI melanoma
M14 melanoma = system: M14 melanoma
MALME-3M melanoma = system: MALME-3M melanoma
MCF7 breast = system: MCF7 breast
MDA-MB-231 breast = system: MDA-MB-231 breast
MDA-MB-435 = system: MDA-MB-435
MOLT-4 leukemia = system: MOLT-4 leukemia
NCI-H226 lung = system: NCI-H226 lung
NCI-H23 lung = system: NCI-H23 lung
NCI-H460 lung = system: NCI-H460 lung
NCI-H522 lung = system: NCI-H522 lung
NCI/ADR-RES ovarian = system: NCI/ADR-RES ovarian
OVCAR-3 ovarian = system: OVCAR-3 ovarian
OVCAR-4 ovarian = system: OVCAR-4 ovarian
OVCAR-5 ovarian = system: OVCAR-5 ovarian
OVCAR-8 ovarian = system: OVCAR-8 ovarian
PC-3 prostate = system: PC-3 prostate
RPMI-8226 leukemia = system: RPMI-8226 leukemia
RXF 393 renal = system: RXF 393 renal
SF-268 CNS = system: SF-268 CNS
SF-295 CNS = system: SF-295 CNS
SF-539 CNS = system: SF-539 CNS
SK-MEL-2 melanoma = system: SK-MEL-2 melanoma
SK-MEL-28 melanoma = system: SK-MEL-28 melanoma
SK-MEL-5 melanoma = system: SK-MEL-5 melanoma
SK-OV-3 ovarian = system: SK-OV-3 ovarian
SN12C renal = system: SN12C renal
SNB-19 CNS = system: SNB-19 CNS
SNB-75 CNS = system: SNB-75 CNS
SR leukemia = system: SR leukemia
SW-620 colon = system: SW-620 colon
T-47D breast = system: T-47D breast
TK-10 renal = system: TK-10 renal
U251 CNS = system: U251 CNS
UACC-257 melanoma = system: UACC-257 melanoma
UACC-62 melanoma = system: UACC-62 melanoma
UO-31 renal = system: UO-31 renal

Nc1c(C(=O)c2cccc(-c3cccnc3)c2)cnn1-c1ccc(F)cc1F
inactive: GI50 (786-0 renal) 18.1 µM | GI50 (A498 renal) 2.64 µM | GI50 (A549 NSCLC) 2.05 µM | GI50 (ACHN renal) 6.92 µM | GI50 (BT-549 breast) 5.91 µM | GI50 (CAKI-1 renal) 4.53 µM | GI50 (CCRF-CEM leukemia) 10.2 µM | GI50 (COLO 205 colon) 1.19 µM | GI50 (DU-145 prostate) 12 µM | GI50 (HCC-2998 colon) 9.43 µM | GI50 (HCT-116 colon) 2.87 µM | GI50 (HCT-15 colon) 1.11 µM | GI50 (HL-60(TB) leukemia) 5.76 µM | GI50 (HOP-62 NSCLC) 5.49 µM | GI50 (HOP-92 NSCLC) 1.94 µM | GI50 (HS 578T breast) 7.44 µM | GI50 (HT29 colon) 1.05 µM | GI50 (IGROV1 ovarian) 2.06 µM | GI50 (K-562 leukemia) 0.962 µM | GI50 (KM12 colon) 1.21 µM | GI50 (LOX IMVI melanoma) 5.76 µM | GI50 (M14 melanoma) 2.71 µM | GI50 (MALME-3M melanoma) 2.26 µM | GI50 (MCF7 breast) 1.59 µM | GI50 (MDA-MB-231 breast) 3.8 µM | GI50 (MDA-MB-435) 0.476 µM | GI50 (MOLT-4 leukemia) 7.85 µM | GI50 (NCI-H226 lung) 6.96 µM | GI50 (NCI-H23 lung) 4.41 µM | GI50 (NCI-H460 lung) 1.52 µM | GI50 (NCI-H522 lung) 1.57 µM | GI50 (NCI/ADR-RES ovarian) 1.2 µM | GI50 (OVCAR-3 ovarian) 3.93 µM | GI50 (OVCAR-4 ovarian) 7.77 µM | GI50 (OVCAR-5 ovarian) > 19.6 µM | GI50 (OVCAR-8 ovarian) 8.13 µM | GI50 (PC-3 prostate) 5.12 µM | GI50 (RPMI-8226 leukemia) 9.54 µM | GI50 (RXF 393 renal) 7.91 µM | GI50 (SF-268 CNS) 10.8 µM | GI50 (SF-295 CNS) 3.26 µM | GI50 (SF-539 CNS) 8.32 µM | GI50 (SK-MEL-2 melanoma) 3.87 µM | GI50 (SK-MEL-28 melanoma) 10.1 µM | GI50 (SK-MEL-5 melanoma) 1.8 µM | GI50 (SK-OV-3 ovarian) 7.21 µM | GI50 (SN12C renal) 7.53 µM | GI50 (SNB-19 CNS) 11.7 µM | GI50 (SNB-75 CNS) 5.33 µM | GI50 (SR leukemia) 0.823 µM | GI50 (SW-620 colon) 1.27 µM | GI50 (T-47D breast) 1.57 µM | GI50 (TK-10 renal) 6.43 µM | GI50 (U251 CNS) 6.79 µM | GI50 (UACC-257 melanoma) 6.28 µM | GI50 (UACC-62 melanoma) 2.65 µM | GI50 (UO-31 renal) 5.56 µM
13.8 µM: TGI (SK-MEL-5 melanoma)
> 18.4 µM: TGI (SK-MEL-2 melanoma)
> 23 µM: TGI (A498 renal)
1.36 µM: TGI (MDA-MB-435)
> 15 µM: TGI (NCI-H522 lung)
> 6.83 µM: TGI (SR leukemia)
> 25 µM: TGI (786-0 renal) | TGI (A549 NSCLC) | TGI (ACHN renal) | TGI (BT-549 breast) | TGI (CAKI-1 renal) | TGI (CCRF-CEM leukemia) | TGI (COLO 205 colon) | TGI (DU-145 prostate) | TGI (HCC-2998 colon) | TGI (HCT-116 colon) | TGI (HCT-15 colon) | TGI (HL-60(TB) leukemia) | TGI (HOP-62 NSCLC) | TGI (HS 578T breast) | TGI (HT29 colon) | TGI (IGROV1 ovarian) | TGI (KM12 colon) | TGI (LOX IMVI melanoma) | TGI (M14 melanoma) | TGI (MCF7 breast) | TGI (MDA-MB-231 breast) | TGI (MOLT-4 leukemia) | TGI (NCI-H226 lung) | TGI (NCI-H23 lung) | TGI (NCI-H460 lung) | TGI (OVCAR-3 ovarian) | TGI (OVCAR-4 ovarian) | TGI (OVCAR-5 ovarian) | TGI (OVCAR-8 ovarian) | TGI (PC-3 prostate) | TGI (RPMI-8226 leukemia) | TGI (RXF 393 renal) | TGI (SF-268 CNS) | TGI (SF-539 CNS) | TGI (SK-MEL-28 melanoma) | TGI (SK-OV-3 ovarian) | TGI (SN12C renal) | TGI (SNB-19 CNS) | TGI (SNB-75 CNS) | TGI (SW-620 colon) | TGI (T-47D breast) | TGI (TK-10 renal) | TGI (U251 CNS) | TGI (UACC-257 melanoma) | TGI (UACC-62 melanoma) | TGI (UO-31 renal)
24.5 µM: TGI (K-562 leukemia)
> 24 µM: TGI (SF-295 CNS)
> 20.9 µM: TGI (MALME-3M melanoma)
17.4 µM: TGI (HOP-92 NSCLC)
> 21.9 µM: TGI (NCI/ADR-RES ovarian)

CCC[CH2][Sn]1([CH2]CCC)[O]C2C(CO)OC(n3ccc(N)nc3=O)C2[O]1 (stereo not given)
1.98 µM: TGI (HOP-92 NSCLC)
2.47 µM: TGI (SF-268 CNS)
> 100 µM: TGI (K-562 leukemia) | TGI (MOLT-4 leukemia) | TGI (SR leukemia)
2.79 µM: TGI (HCT-116 colon)
2.87 µM: TGI (U251 CNS)
2.19 µM: TGI (MDA-MB-231 breast)
2.49 µM: TGI (T-47D breast)
3.09 µM: TGI (M14 melanoma)
3.08 µM: TGI (NCI-H23 lung)
3.13 µM: TGI (KM12 colon)
4.37 µM: TGI (NCI/ADR-RES ovarian)
2.38 µM: TGI (TK-10 renal)
2.68 µM: TGI (OVCAR-4 ovarian)
3.2 µM: TGI (HCC-2998 colon)
1.17 µM: TGI (A498 renal)
3.15 µM: TGI (COLO 205 colon)
2.67 µM: TGI (ACHN renal)
3.99 µM: TGI (HOP-62 NSCLC)
2.7 µM: TGI (HCT-15 colon)
2.78 µM: TGI (IGROV1 ovarian)
3.38 µM: TGI (SK-OV-3 ovarian)
2.29 µM: TGI (SK-MEL-2 melanoma)
2.15 µM: TGI (MALME-3M melanoma)
3.26 µM: TGI (PC-3 prostate)
2.83 µM: TGI (SN12C renal)
3.11 µM: TGI (OVCAR-8 ovarian)
2.53 µM: TGI (CAKI-1 renal)
2.88 µM: TGI (786-0 renal) | TGI (MDA-MB-435)
2.72 µM: TGI (SF-539 CNS)
2.94 µM: TGI (OVCAR-3 ovarian)
2.99 µM: TGI (SK-MEL-5 melanoma)
2.48 µM: TGI (RXF 393 renal)
3.72 µM: TGI (SF-295 CNS)
active: GI50 (A498 renal) 0.271 µM | GI50 (HOP-92 NSCLC) 0.361 µM | GI50 (K-562 leukemia) 0.297 µM | GI50 (LOX IMVI melanoma) 0.384 µM | GI50 (MCF7 breast) 0.3 µM | GI50 (NCI-H522 lung) 0.186 µM | GI50 (RPMI-8226 leukemia) 0.29 µM | GI50 (T-47D breast) 0.383 µM
2.93 µM: TGI (SNB-19 CNS)
3.03 µM: TGI (OVCAR-5 ovarian)
2.28 µM: TGI (SNB-75 CNS)
2.43 µM: TGI (UO-31 renal)
4.14 µM: TGI (HS 578T breast)
2.66 µM: TGI (SK-MEL-28 melanoma)
2.02 µM: TGI (RPMI-8226 leukemia)
0.424 µM: TGI (NCI-H522 lung)
3.6 µM: TGI (NCI-H460 lung)
2.61 µM: TGI (DU-145 prostate) | TGI (UACC-257 melanoma)
1.65 µM: TGI (LOX IMVI melanoma)
inactive: GI50 (786-0 renal) 1.54 µM | GI50 (A549 NSCLC) 2.38 µM | GI50 (ACHN renal) 1.35 µM | GI50 (BT-549 breast) 1.42 µM | GI50 (CAKI-1 renal) 1.19 µM | GI50 (COLO 205 colon) 1.48 µM | GI50 (DU-145 prostate) 1.34 µM | GI50 (HCC-2998 colon) 1.66 µM | GI50 (HCT-116 colon) 1.44 µM | GI50 (HCT-15 colon) 1.27 µM | GI50 (HOP-62 NSCLC) 2.24 µM | GI50 (HS 578T breast) 1.29 µM | GI50 (IGROV1 ovarian) 1.02 µM | GI50 (KM12 colon) 1.68 µM | GI50 (M14 melanoma) 1.55 µM | GI50 (MALME-3M melanoma) 0.701 µM | GI50 (MDA-MB-231 breast) 0.818 µM | GI50 (MDA-MB-435) 1.41 µM | GI50 (MOLT-4 leukemia) 1.64 µM | GI50 (NCI-H226 lung) 2.02 µM | GI50 (NCI-H23 lung) 1.35 µM | GI50 (NCI-H460 lung) 1.79 µM | GI50 (NCI/ADR-RES ovarian) 2.01 µM | GI50 (OVCAR-3 ovarian) 1.58 µM | GI50 (OVCAR-4 ovarian) 1.33 µM | GI50 (OVCAR-5 ovarian) 1.57 µM | GI50 (OVCAR-8 ovarian) 1.66 µM | GI50 (PC-3 prostate) 1.66 µM | GI50 (RXF 393 renal) 1.22 µM | GI50 (SF-268 CNS) 1.08 µM | GI50 (SF-295 CNS) 1.93 µM | GI50 (SF-539 CNS) 1.41 µM | GI50 (SK-MEL-2 melanoma) 0.964 µM | GI50 (SK-MEL-28 melanoma) 1.29 µM | GI50 (SK-MEL-5 melanoma) 1.61 µM | GI50 (SK-OV-3 ovarian) 1.82 µM | GI50 (SN12C renal) 1.45 µM | GI50 (SNB-19 CNS) 1.55 µM | GI50 (SNB-75 CNS) 1.05 µM | GI50 (SR leukemia) 0.549 µM | GI50 (TK-10 renal) 1.15 µM | GI50 (U251 CNS) 1.52 µM | GI50 (UACC-257 melanoma) 1.28 µM | GI50 (UACC-62 melanoma) 1.12 µM | GI50 (UO-31 renal) 1.16 µM
1.42 µM: TGI (MCF7 breast)
2.41 µM: TGI (UACC-62 melanoma)
4.25 µM: TGI (NCI-H226 lung)
2.73 µM: TGI (BT-549 breast)
4.73 µM: TGI (A549 NSCLC)
